Patent US20090069418A1, “Compositions and Methods for the Treatment of Disorders Associated with Aberrant Vasodilation” (priority 2007, published 2009)
Like-named read-outs stand apart in the source and are kept apart here.

How the values were obtained:
Assay type in all cases: in vivo
[1] = biological target: T1, soluble epoxide hydrolase (Mus musculus, UniProt P34914); test: Soluble epoxide hydrolase activity assay in brain after systemic AUDA-BE ([3H]-tDPPO substrate)
T1 construct: from tissue; host or cells: mouse brain (C57Bl/6), cytosolic or peroxisomal fractions
T1 sequence (P34914 1-554): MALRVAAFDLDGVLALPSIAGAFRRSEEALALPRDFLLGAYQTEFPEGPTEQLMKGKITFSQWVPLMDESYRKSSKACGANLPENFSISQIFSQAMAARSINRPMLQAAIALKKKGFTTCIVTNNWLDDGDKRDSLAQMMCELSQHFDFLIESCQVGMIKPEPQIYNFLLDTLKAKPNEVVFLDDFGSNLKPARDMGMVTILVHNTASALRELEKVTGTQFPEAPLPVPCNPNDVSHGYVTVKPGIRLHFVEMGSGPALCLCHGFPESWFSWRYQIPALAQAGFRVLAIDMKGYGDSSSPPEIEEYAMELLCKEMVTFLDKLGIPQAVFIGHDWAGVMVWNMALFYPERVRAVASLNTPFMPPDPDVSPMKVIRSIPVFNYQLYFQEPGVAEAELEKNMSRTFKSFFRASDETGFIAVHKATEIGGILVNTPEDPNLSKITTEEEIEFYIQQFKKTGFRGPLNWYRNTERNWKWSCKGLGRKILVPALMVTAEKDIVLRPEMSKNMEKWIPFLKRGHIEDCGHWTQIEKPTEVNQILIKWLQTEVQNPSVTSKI
Experimental: Rate of hydration of tDPPO is determined by liquid scintillation spectroscopy after differential extraction of the epoxide and diol. Briefly, cytosolic or peroxisomal fractions were incubated at 37° C. in 100 μL incubation mixtures containing sodium phosphate buffer (90 mmol/L, pH 7.4) and tDPPO (1 to 50 μmol/L in 1 μL dimethylformamide). Incubations were stopped after 5 minutes with the addition of 60 μL methanol and 200 μL isooctane. Zero-time and zero-protein incubations served as blanks. Incubations were vortexed vigorously to extract the substrate into the isooctane (the diol metabolite remains in the aqueous phase). A known aliquot of the aqueous phase was removed and added to 1 mL scintillation cocktail for scintillation counting. Extraction efficiency exceeded 91%.
It should be noted that these sEH inhibitors are reversible transition state inhibitors. Thus, the levels of inhibition are certain to be above those detected due to dilution of the sample during work up.

C57Bl/6 mice = test: Middle cerebral artery occlusion in mice, infarct size (Example 2); details: for infarct size after 2-hour MCAO: vehicle 33±2%; for reduction of infarct size compared with vehicle: 10 mg/kg
Experimental: (2001) J. Neurosci., 21:7543-50). […] A small laser-Doppler probe was affixed to the skull to monitor cortical perfusion and verify vascular occlusion and reperfusion. […] After securing the filament in place, the surgical site was closed, and the animal was awakened and assessed at 2 hours of occlusion for neurological deficit using a simple neurological scoring system as follows: 0=no deficit, 1=failure to extend forelimb, 2=circling, 3=unilateral weakness, 4=no spontaneous motor activity. Mice with clear neurological deficit were re-anesthetized, laser-Doppler probe re-positioned over same site on the skull, and the occluding filament was withdrawn to allow for reperfusion. Mice were then allowed to recover and observed for 1 day. […] Slices were photographed, and infarcted (unstained) and uninfarcted (red color) areas were measured with MCID software (InterFocus Imaging Ltd, Linton, UK) and integrated across all five slices. To account for the effect of edema, the infarcted area was estimated indirectly by subtracting the uninfarcted area in the ipsilateral hemisphere from the contralateral hemisphere, and expressing infarct volume as a percentage of contralateral hemisphere. […] (2000) J. Physiol. Pharmacol., 51:655-72). […] Animals were randomly assigned to treatment groups.

mice = test system: mice
Description: Male mice between the ages of 16-24 weeks were anesthetized with isoflurane (induction 4-5 vol %; maintenance 1-2 vol %), intubated with a 20G plastic IV catheter, and mechanically ventilated using a rodent ventilator (Inspira, volume-controlled, Harvard Apparatus, MA). ECG and rectal temperature were continuously monitored using a PC-based recording device (PowerLab 8/30, ADInstruments, Colorado Springs, Colo.). The animals were positioned in a right lateral decubital position on a heating pad and rectal temperature was maintained at 37° C. throughout the experiment. A PE-10 catheter was inserted into the left jugular vein for intravenous drug infusion. Using a dissecting microscope, a left-sided thoracotomy was performed in the 4th intercostal space. […] A ligature (8-0 Monosof MV-135-4, ⅜ 5 mm tapered needle, Syneture, Norwalk, Colo.) was placed around the left coronary artery (LCA) approximately 2 mm distal to the left atrial margin. The suture was fed through a short section of PE-10 tubing to form a snare to allow temporary occlusion. The LCA was occluded for 40 minutes; occlusion was confirmed by persistent ECG changes during occlusion and visual paling of the left ventricle (LV). After 40 minutes the snare was released and reperfusion was confirmed with visual hyperemia of the LV and return of the ECG changes. After 2 hours of reperfusion the LCA was re-occluded and fluorescent polymer microspheres (0.4% solution, diameter 1-10 μm; Duke Scientific Corporation, Palo Alto, Calif.) were infused via needle puncture of the LV apex. […] Heart was then excised, rinsed in normal saline, and the right and left atria were removed under the dissecting microscope. The remaining left and right ventricles were weighed and then sliced into seven sections (d=1 mm) for imaging and staining.
Heart sections were immediately photographed with a digital camera (Canon Powershot A620) under UV light for determination of AAR. Infarct size (I) was determined by staining the heart sections in 1% 2,3,5 triphenyltetrazolium chloride (TTC) in phosphate buffer at pH 7.4 for 10 minutes, followed by 10% neutral buffered formalin (NBF) bath overnight. Pictures were taken the next day under full spectrum light. TTC stained non-infarcted myocardium red, while infarcted myocardium remained white. Both AAR and I areas were calculated in a blinded fashion using standard imaging software (Photoshop Elements 4). A calibration ruler was present in each picture to convert pixels into volume. TTC slices were volume corrected for dehydration following formalin immersion.
The 14,15-EET was obtained from BIOMOL (Plymouth Meeting, Pa.). It was dissolved in a vehicle composed of 100% ethanol and saline (1:3), resulting in a final ethanol solution of 25%. […] SNC-162, a non-peptide δ-opioid receptor agonist, was used for comparison of the magnitude of cardioprotection found within the epoxide pathway. SNC-162 (0.1 μg/g iv over 10 minutes) was dissolved in 10% DMSO.

## CCCCOC(=O)CCCCCCCCCCCNC(=O)NC12CC3CC(CC(C3)C1)C2 [AUDA-BE, 12-(3-adamantane-1-yl-ureido)-dodecanoic acid butyl ester]
[1]; AUDA-BE 10 mg/kg intraperitoneally, 1, 3, 6 and 24 hours, vehicle 1.92±0.06 nmol/mg
  average brain sEH activity over 24 hours: 1.56±0.13 nmol/mg protein
[1]; mouse, ip, read-out: inhibition of brain sEH activity
  inhibition at 10 mg/kg: ≥ 20%
C57Bl/6 mice; 10 mg/kg intraperitoneally 1 hour before (pre)
  infarct size after 2-hour MCAO: 20±5%
C57Bl/6 mice; 10 mg/kg intraperitoneally at the time of reperfusion (post)
  infarct size after 2-hour MCAO: 16±6%
C57Bl/6 mice; 1 hour before (pre)
  reduction of infarct size compared with vehicle: 40%
C57Bl/6 mice; at the time of reperfusion (post)
  reduction of infarct size compared with vehicle: 50%
C57Bl/6 mice; AUDA-BE 10 mg/kg at reperfusion combined with MS-PPOH (0.5 mg/200 mL over 24 hours before MCAO, osmotic minipump)
  infarct size after MCAO: 34±7%
mice; PRO (given prior to reperfusion)
  Infarct Volume: 15 ± 3 mm^3
mice; given before ischemia or before reperfusion
  infarct size after myocardial I/R compared to vehicle: significantly reduced infarct size
mice; given prior to LCA occlusion (PRE)
  Infarct Volume: 12 ± 2 mm^3
